Source: patent publication US11452730B2, “Applications of desogestrel in the preparation of breast cancer ER-negative Ah receptor-positive products” (SHANGHAI JIAO TONG UNIVERSITY, priority 2015, dated 2022)
Like-named read-outs stand apart in the source and are kept apart here.

Experiments:
Assay type in all cases: cell-based
[1] = system: BT-474 ductal breast cancer cells; assay: CellTiter-Glo luminescent cell viability assay, BT-474 cells (same method); details: Homo sapiens, Table 1
Text: Ductal breast cancer cells BT-474, complete medium basis of RPMI-1640 (a live product), Cat #A1049101, with a cells/well density of 4,000. The same method was used to test desogestrel's action on the IC50 value of BT-474 ductal breast cancer cells; results are shown in Table 1.

LoVo colon cancer cells = assay: CellTiter-Glo luminescent cell viability assay, LoVo 96-well drug screening plate; details: Homo sapiens, 72 hours
Procedure: (§1) In example 1, CELLTITER-GLO was used to test desogestrel for colon cancer RKO cells, LoVo cells, and MDA-MB-468 ductal breast cancer cells were handled as described above, and RKO 96-well cell culture plates, 96-well LoVo cell culture plates, and 96-well MDA-MB-468 cell culture plates were obtained, respectively. The complete medium for LoVo cells was MEM (a live product), Cat #10370021, with a cells/well density of 8000. a) DMSO was used to dilute the analyte desogestrel to 20 mM for use. b) 79 μL of the 20 mM analyte prepared in step a) was added to the first well in the first row of the dilution plate, and then 54 μL of DMSO solution was added to the second through ninth wells of the first row. 25 μL of solution was aspirated from the first to the second well, and after mixing well 25 μL of solution was aspirated from the second to the third well, and this was repeated until the 9th well in order to ensure that 3.16 dilution of the medication would be carried out one-by-one. b) 95 μl of cell-specific complete medium was added to the working plate, each medication to 9 wells. […] The final concentrations (μM) of the analyte drug in wells 2-10 in FIG. 1 are, in order: 100, 31.64557, 10.01442, 3.16912, 1.002886, 0.317369, 0.100433, 0.031783, 0.010058; a) Before testing, the RKO 96-well drug screening plate and the LoVo 96-well drug screen plate described in 3 above were stabilized to room temperature for 20-30 minutes. c) 100 μl of CellTiter-Glo reagent (prepared as described in 1 above) was added to all drug screening plates and mixed evenly. d) It was thoroughly oscillated in a 96-well microplate oscillator for 2 minutes to allow the cells to undergo full lysis. e) It was stored away from light at room temperature for 15 minutes before carrying out luminescent signal detection to ensure signal stability. f) An EnSpire multi-function plate reader was used at 570 nm to read the luminescent signals.

RKO colon cancer cells = assay: CellTiter-Glo luminescent cell viability assay, RKO 96-well drug screening plate; details: 72 hours
Procedure: as §1, with “for RKO” for “for LoVo”, “was DMEM” for “was MEM”, “Cat #11995081,” for “Cat #10370021,”, “of 12000.” for “of 8000.”

[2] = system: ER-negative Ah receptor-positive MDA-MB-468 breast cancer cells; assay: CellTiter-Glo luminescent cell viability assay, MDA-MB-468 96-well drug screening plate; details: Homo sapiens, 72 hours
Procedure: as §1, with “RKO” for “In example 1, CELLTITER-GLO was used to test desogestrel for colon cancer RKO”, “for ER-negative Ah receptor-positive MDA-MB-468 breast cancer” for “for LoVo”, “was Leibovitz's L-15” for “was MEM”, “Cat #11415064,” for “Cat #10370021,”, “of 12000.” for “of 8000.”, “0.010058;” for “0.010058; a) Before testing, the RKO 96-well drug screening plate and the LoVo 96-well drug screen plate described in 3 above were stabilized to room temperature for 20-30 minutes.”

Q: Which results are given for C#C[C@]1(O)CC[C@H]2[C@@H]3CCC4=CCCC[C@@H]4[C@H]3C(=C)C[C@@]21CC [desogestrel]?
A: IC50 [1]: ≥ 100 µM; EC50 (LoVo colon cancer cells; FIG. 3, colon cancer, LoVo 96-well drug screening plate): 26.3 µM; IC50 (LoVo colon cancer cells; FIG. 3, colon cancer, LoVo 96-well drug screening plate, read-out: IC50): 26.2 µM; IC50 (LoVo colon cancer cells; LoVo cells, Table 1, read-out: IC50 value): 32.1 µM; EC50 (RKO colon cancer cells; FIG. 2, colon cancer, RKO 96-well drug screening plate): 136 µM; IC50 (RKO colon cancer cells; FIG. 2, colon cancer, RKO 96-well drug screening plate, read-out: IC50): 32.1 µM; IC50 (RKO colon cancer cells; Homo sapiens, RKO cells, Table 1, read-out: IC50 value): 26.2 µM; EC50 ([2]; FIG. 4, ER-negative Ah receptor-positive breast cancer, MDA-MB-468 plate): 11.3 µM; IC50 ([2]; FIG. 4, ER-negative Ah receptor-positive breast cancer, MDA-MB-468 plate, read-out: IC50): 12.5 µM; IC50 ([2]; MDA-MB-468 cells, Table 1, read-out: IC50 value): 12.5 µM
